# From ChEMBL document CHEMBL1201862, “PubChem BioAssay data set” (2004)
# Active and inactive are the calls of the source.
# Experiments:
# cells = format: functional, cell-based
# [1] = biological target: T1, Nuclear receptor subfamily 0 group B member 1 (Homo sapiens, UniProt P51843); format: functional, cell-based;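 further: HEK293T cells transfected with SF-1 and DAX-1 plus StAR promoter luciferase reporter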
# T1 sequence (P51843 whole entry): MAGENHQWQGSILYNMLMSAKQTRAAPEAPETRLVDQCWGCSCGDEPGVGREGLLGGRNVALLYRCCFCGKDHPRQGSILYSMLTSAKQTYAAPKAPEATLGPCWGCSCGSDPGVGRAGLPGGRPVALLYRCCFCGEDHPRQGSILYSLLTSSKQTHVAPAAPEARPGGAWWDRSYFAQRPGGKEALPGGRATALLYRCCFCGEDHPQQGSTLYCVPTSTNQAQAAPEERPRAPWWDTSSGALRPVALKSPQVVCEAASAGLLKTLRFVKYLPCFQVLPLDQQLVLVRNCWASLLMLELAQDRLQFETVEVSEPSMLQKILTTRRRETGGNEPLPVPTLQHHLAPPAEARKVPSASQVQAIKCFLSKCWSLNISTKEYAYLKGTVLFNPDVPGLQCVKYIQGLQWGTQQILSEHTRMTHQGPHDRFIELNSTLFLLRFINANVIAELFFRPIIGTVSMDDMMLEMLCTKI
# [2] = Counterscreen for inhibitors of Trypanosoma brucei methionyl tRNA synthetase (MetRS): Luminescence-based cell-based high throughput dose response assay to identify compounds that are cytotoxic to Jurkat human T lymphocyte cells.; format: functional
# [3] = biological target: T2, Methionyl-tRNA synthetase, putative (Trypanosoma brucei brucei, UniProt Q38C91); format: functional, Trypanosoma brucei brucei strain 927/4 GUTat10.1
# T2 sequence (Q38C91 whole entry): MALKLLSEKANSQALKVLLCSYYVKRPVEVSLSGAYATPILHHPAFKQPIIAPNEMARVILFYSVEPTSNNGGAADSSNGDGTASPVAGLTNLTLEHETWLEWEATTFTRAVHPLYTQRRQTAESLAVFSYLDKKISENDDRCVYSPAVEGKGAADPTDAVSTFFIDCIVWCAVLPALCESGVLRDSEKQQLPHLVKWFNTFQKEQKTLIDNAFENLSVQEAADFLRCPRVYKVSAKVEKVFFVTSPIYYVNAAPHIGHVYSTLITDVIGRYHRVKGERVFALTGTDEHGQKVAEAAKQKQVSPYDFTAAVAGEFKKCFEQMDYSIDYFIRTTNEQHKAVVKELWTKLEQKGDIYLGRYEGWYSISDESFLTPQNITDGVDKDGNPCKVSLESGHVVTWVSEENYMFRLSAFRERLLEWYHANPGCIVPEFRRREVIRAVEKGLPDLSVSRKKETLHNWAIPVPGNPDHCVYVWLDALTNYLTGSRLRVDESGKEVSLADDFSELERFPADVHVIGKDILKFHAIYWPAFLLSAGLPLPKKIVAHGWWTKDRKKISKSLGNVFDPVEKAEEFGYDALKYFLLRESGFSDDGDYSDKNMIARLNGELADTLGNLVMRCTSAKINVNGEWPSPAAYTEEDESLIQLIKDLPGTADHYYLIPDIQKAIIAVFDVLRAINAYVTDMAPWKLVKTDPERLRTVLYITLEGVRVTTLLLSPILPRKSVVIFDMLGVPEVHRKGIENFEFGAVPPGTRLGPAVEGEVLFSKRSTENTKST
# [4] = biological target: T2, Methionyl-tRNA synthetase, putative; format: functional, Trypanosoma brucei brucei strain 927/4 GUTat10.1; remark: listed apart in the source
# [5] = biological target: T3, Corticotropin-releasing factor receptor 2/Corticotropin-releasing factor-binding protein (Homo sapiens, UniProt P24387+Q13324); assay: Dose Response confirmation of uHTS hits for small molecule antagonists of the CRF-binding protein and CRF-R2 receptor complex.; format: functional; details: read-out: IC50_Mean
# T3 sequence (Q13324 whole entry): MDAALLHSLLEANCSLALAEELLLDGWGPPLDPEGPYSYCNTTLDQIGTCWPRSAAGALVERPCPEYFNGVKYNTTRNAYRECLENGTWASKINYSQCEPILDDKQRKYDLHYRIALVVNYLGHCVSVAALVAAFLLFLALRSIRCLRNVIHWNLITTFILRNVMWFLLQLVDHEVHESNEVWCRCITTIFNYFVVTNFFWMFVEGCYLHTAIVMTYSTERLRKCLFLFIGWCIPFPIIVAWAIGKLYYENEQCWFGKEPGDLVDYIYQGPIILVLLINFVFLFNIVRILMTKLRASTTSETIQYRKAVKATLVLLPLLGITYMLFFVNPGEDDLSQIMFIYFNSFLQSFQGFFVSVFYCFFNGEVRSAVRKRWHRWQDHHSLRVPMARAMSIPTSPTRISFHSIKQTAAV
# T3 sequence (P24387 whole entry): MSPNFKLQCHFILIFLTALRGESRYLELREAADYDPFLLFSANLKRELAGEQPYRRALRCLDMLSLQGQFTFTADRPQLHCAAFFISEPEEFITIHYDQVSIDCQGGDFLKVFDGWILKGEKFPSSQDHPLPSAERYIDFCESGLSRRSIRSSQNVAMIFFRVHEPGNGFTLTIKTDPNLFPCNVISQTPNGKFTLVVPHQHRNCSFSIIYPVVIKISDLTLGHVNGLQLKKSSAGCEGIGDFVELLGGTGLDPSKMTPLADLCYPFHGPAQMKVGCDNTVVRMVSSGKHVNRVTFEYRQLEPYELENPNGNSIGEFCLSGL
# [6] = biological target: T3, Corticotropin-releasing factor receptor 2/Corticotropin-releasing factor-binding protein; assay: activators of CRF receptor 2 with binding protein – uHTS hits, confirmation (AID 602473); format: functional; details: read-out: EC50_Mean
# [7] = blockers of CRF-binding protein–CRF-R2 complex – cell-based, uHTS hits, 384-well, dose response (AID 651639); format: functional, Homo sapiens; details: read-out: IC50_Mean
# ORF 73 = biological target: T4, ORF 73 (Human herpesvirus 8, UniProt O40947); assay: KSHV LANA DNA-binding disruption – biochemical, fluorescence polarization, cherry-picked samples, dose response (AID 504725); design: species or system Human gammaherpesvirus 8;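 further: fluorescence polarization of a labeled DNA duplex reporting LANA DNA binding; potency is for inhibitors that block LANA binding to the DNA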
# T4 sequence (O40947 whole entry): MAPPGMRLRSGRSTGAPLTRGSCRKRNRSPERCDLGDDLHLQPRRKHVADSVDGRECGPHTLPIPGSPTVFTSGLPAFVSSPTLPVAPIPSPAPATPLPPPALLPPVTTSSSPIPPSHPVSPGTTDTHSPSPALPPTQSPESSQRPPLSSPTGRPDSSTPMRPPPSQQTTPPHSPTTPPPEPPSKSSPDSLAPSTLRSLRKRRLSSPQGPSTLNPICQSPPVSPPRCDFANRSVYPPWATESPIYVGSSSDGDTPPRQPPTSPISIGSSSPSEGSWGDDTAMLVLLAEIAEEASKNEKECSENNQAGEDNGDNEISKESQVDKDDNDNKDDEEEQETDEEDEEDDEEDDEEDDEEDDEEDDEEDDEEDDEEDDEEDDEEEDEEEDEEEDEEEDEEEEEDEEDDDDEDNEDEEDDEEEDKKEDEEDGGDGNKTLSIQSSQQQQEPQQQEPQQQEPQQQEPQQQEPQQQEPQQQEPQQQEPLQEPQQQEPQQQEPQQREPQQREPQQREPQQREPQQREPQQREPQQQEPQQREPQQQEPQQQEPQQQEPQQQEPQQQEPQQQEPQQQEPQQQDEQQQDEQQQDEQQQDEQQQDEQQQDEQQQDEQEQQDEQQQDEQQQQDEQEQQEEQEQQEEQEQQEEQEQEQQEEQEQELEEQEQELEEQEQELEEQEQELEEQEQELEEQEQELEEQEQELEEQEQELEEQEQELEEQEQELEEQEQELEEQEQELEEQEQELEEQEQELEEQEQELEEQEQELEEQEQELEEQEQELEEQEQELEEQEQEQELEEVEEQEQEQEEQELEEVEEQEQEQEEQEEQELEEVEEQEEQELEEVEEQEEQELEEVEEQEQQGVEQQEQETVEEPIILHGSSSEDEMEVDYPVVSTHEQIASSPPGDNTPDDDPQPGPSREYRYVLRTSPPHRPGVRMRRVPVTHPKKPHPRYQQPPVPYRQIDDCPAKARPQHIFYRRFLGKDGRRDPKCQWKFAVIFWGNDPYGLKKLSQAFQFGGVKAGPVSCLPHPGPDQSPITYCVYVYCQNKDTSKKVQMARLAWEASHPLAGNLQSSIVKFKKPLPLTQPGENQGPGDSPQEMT
# Protein S100-A4 = Protein S100-A4 (Homo sapiens, UniProt P26447); assay: human S100A4 peptide interaction inhibition curves – biochemical, fluorescence polarization, cherry-picked hits, dose response (AID 687001); format: functional
# Beta-lactamase [8] = biological target: Beta-lactamase (Pseudomonas aeruginosa, UniProt Q79MP6);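 further: biochemical dose-response test of metallo-beta-lactamase enzyme inhibition, read out by epi-absorbance; purified recombinant IMP-1 metallo-beta-lactamase with nitrocefin as substrate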
# Beta-lactamase [9] = biological target: Beta-lactamase (Salmonella choleraesuis (strain SC-B67), UniProt Q5J463)
# [10] = biological target: T5, Calpain-2 catalytic subunit (Sus scrofa, UniProt P43367); assay: m-calpain protease blockers, concentration series – biochemical, fluorogenic peptide substrate, dose response (AID 1420); format: functional
# T5 sequence (P43367 whole entry): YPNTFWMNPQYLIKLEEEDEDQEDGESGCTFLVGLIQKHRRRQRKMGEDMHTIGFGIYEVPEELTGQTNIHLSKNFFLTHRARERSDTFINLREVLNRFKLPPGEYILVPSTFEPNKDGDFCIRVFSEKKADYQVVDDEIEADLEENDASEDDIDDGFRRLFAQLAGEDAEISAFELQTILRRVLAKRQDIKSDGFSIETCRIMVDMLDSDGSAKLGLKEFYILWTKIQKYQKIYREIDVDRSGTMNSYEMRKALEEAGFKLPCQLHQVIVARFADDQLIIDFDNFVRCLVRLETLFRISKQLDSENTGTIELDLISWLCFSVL
# [11] = Counterscreen for […] of the human trace amine associated receptor 1 (TAAR1): Fluorescence-based cell-based high throughput dose response assay to identify nonselective Ga16 agonists.; format: functional
# [12] = Counterscreen for antagonists of the human trace amine associated receptor 1 (hTAAR1): Fluorescence-based cell-based high throughput dose response assay to identify nonselective Ga16 antagonists.; format: functional
# [13] = biological target: T6, Heat shock factor protein 1 (Mus musculus, UniProt P38532); assay: decrease of HSF1-responsive luciferase luminescence – cell-based, NIH3T3, dose retest, confirmation (AID 2382); format: functional;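 further: NIH3T3 fibroblasts with HSF1-driven luciferase reporter stressed by proteasome inhibitor MG132; luminescence from HSF1-driven luciferase expression after 8 hours of MG132 stress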
# T6 sequence (P38532 whole entry): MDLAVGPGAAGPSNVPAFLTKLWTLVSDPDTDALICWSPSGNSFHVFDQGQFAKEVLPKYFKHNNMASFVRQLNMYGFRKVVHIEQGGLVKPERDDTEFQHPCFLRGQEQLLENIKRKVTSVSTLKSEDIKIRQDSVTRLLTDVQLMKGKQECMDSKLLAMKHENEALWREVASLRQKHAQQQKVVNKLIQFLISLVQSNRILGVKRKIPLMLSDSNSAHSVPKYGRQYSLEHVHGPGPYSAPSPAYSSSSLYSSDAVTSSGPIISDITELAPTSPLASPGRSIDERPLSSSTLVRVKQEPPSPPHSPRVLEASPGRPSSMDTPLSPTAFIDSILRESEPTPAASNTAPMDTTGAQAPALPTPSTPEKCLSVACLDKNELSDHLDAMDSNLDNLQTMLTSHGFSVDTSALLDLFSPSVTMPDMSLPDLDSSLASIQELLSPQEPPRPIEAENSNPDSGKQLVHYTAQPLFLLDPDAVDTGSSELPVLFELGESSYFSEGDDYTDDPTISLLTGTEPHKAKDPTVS
# [14] = Counterscreen for activators of the function of SWI/SNF related, matrix associated, actin dependent regulator of chromatin, subfamily a, member 2 (SMARCA2, BRM): Luminescence-based cell-based high throughput dose response assay to identify non-selective compounds using the VP16 reporter assay.; format: functional
# [15] = biological target: SWI/SNF-related matrix-associated actin-dependent regulator of chromatin subfamily A member 2 (Homo sapiens, UniProt P51531); assay: Luminescence-based cell-based high throughput dose response assay to identify activators of the function of SWI/SNF related, matrix associated, actin dependent regulator of chromatin, subfamily a, member 2 (SMARCA2, BRM).; format: functional
# [16] = Reduced DLD-1 viability, concentration-response, CellTiter-Glo luminescence (AID 1117352); format: functional
# [17] = cytotoxicity toward HT-29 cells – cell-based, CellTiter-Glo luminescence, IC50, dose response (AID 1117330); format: functional
# [18] = rise of 4N DNA cells, HeLa – IC50, dose response (AID 1117351); format: functional, cell-based
# [19] = loss of viability in HepG2 cells – cell-based, CellTiter-Glo, cherry-picked, cytotoxicity control for Shn3 inhibitor project, dose response (AID 624134); format: functional
# [20] = SNU-C1 cell viability reduction, dose response, CellTiter-Glo luminescence (AID 1117323); format: functional, cell-based
# [21] = rise of 2N DNA cells, HeLa – IC50, dose response (AID 1117349); format: functional, cell-based
# [22] = reduction of Shn3 3'UTR-driven luciferase in osteoblasts – cell-based, Clone20 osteoblasts, firefly luciferase, cherry-picked, dose response (AID 624132); format: functional;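 further: firefly luciferase luminescence from reporter carrying the Shn3 3'UTR in osteoblasts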
# Chain of Beta-lactamase (Pseudomonas aeruginosa, UniProt Q79MP6) (Q79MP6 whole entry): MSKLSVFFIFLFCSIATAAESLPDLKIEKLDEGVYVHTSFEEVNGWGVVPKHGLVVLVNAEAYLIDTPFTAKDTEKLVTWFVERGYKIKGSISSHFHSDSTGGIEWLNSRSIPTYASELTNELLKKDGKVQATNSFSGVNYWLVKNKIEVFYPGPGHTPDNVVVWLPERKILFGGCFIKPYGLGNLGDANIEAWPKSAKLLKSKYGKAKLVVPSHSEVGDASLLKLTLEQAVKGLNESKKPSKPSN
# Chain of Beta-lactamase (Salmonella choleraesuis (strain SC-B67), UniProt Q5J463) (Q5J463 whole entry): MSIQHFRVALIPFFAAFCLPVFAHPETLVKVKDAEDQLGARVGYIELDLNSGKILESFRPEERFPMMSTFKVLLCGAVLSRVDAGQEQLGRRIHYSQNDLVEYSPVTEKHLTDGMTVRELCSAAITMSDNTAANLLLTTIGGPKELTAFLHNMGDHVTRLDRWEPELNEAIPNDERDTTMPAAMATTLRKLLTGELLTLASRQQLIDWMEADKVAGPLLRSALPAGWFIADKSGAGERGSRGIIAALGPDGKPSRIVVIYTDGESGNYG
# Chain of SWI/SNF-related matrix-associated actin-dependent regulator of chromatin subfamily A member 2 (P51531 whole entry): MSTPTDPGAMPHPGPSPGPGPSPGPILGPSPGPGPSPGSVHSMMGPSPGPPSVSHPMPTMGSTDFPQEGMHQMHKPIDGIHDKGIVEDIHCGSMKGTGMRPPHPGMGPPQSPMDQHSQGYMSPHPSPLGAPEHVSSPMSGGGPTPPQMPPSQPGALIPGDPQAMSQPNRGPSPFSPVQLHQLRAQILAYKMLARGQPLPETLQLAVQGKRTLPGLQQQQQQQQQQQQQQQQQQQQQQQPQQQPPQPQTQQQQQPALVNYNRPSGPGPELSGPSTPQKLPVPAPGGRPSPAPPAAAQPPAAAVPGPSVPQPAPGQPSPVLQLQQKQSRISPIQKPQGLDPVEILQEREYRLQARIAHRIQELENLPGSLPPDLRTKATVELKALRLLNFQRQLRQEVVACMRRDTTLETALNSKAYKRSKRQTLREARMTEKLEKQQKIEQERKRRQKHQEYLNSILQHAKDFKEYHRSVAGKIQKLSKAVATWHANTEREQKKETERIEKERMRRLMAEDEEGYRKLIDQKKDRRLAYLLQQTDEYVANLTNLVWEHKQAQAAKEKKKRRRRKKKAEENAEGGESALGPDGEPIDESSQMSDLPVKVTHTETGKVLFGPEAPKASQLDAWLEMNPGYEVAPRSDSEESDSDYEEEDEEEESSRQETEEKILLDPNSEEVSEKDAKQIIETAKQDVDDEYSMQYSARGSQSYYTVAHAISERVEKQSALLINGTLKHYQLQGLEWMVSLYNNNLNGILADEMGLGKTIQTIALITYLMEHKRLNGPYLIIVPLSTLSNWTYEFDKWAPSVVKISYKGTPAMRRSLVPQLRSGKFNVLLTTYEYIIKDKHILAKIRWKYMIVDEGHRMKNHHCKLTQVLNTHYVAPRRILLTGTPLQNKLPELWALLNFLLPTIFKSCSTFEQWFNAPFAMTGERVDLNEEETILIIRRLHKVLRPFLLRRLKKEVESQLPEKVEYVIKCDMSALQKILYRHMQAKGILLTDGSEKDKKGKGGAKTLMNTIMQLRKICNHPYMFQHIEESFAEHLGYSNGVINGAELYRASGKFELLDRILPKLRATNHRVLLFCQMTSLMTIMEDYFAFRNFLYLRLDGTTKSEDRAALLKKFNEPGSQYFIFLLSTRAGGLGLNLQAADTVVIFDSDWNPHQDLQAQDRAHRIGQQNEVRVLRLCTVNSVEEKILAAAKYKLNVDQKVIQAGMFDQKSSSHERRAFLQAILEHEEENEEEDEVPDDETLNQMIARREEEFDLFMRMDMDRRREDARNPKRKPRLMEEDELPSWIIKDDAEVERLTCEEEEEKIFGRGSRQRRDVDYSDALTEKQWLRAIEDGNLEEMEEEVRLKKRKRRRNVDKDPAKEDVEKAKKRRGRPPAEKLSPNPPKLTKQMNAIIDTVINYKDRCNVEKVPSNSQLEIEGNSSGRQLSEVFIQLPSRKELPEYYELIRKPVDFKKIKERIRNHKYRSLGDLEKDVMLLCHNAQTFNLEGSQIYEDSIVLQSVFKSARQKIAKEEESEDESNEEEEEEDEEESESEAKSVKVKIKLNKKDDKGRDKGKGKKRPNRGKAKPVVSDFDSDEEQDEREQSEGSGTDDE
# Chain of Protein S100-A4 (P26447 whole entry): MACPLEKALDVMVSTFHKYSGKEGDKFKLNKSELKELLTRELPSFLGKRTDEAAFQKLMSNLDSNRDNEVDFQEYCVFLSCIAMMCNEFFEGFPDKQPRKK
smiles,measurement,setting,value
COc1cc2ccccc2cc1C(=O)Nc1cc(C)ccn1,IC50,cells,> 67.6 µM (inactive)
same,IC50,[1],> 67.6 µM (inactive)
Cc1ccc(CNC(=O)CSc2n[nH]c3c4ccccc4nc-3n2)cc1,IC50,[2],83.3 µM (inactive)
same,IC50,[3],3.38 µM (active)
same,IC50,[4],119 µM (inactive)
CC1CC(C)CN(C(=O)CSc2nc(Cc3cccs3)nc3ccccc23)C1 (stereo not drawn),IC50,[5],6.34 µM (active)
same,EC50,[6],> 53 µM (inactive)
same,IC50,[7],5.99 µM (active)
CCOC(=O)Oc1ccc2c(=O)c(Oc3cccc(C)c3)coc2c1,IC50,[5],0.61 µM (active)
same,EC50,[6],> 53 µM (inactive)
same,IC50,[7],> 20 µM (inactive)
CCOC(=O)C1CCCN(c2ccc([N+](=O)[O-])c3nonc23)C1 (stereo not drawn),AC50,ORF 73,4.35 µM (active)
same,AC50,Protein S100-A4,505 nM (active)
same,IC50,Beta-lactamase [8],37.1 µM (inactive)
same,IC50,Beta-lactamase [9],10.5 µM (inactive)
same,IC50,[10],19 µM (not active)
Cc1coc(NC(=O)CSc2nc(-c3ccc(Cl)cc3)cc(C(F)(F)F)c2C#N)n1,EC50,[11],> 29.9 µM (inactive)
same,IC50,[12],> 29.9 µM (inactive)
same,EC50,[13],> 195 µM (not active)
CC(C)n1c(/C=C/[C@@H](O)C[C@@H](O)CC(=O)O)c(-c2ccc(F)cc2)c2ccccc21 [FLUVASTATIN SODIUM],EC50,[14],> 91.1 µM (inactive)
same,EC50,[15],> 91.1 µM (inactive)
same,IC50,[16],> 20 µM (inactive)
same,IC50,[17],> 20 µM (inactive)
same,IC50,[18],> 10 µM (inactive)
same,AC50,[19],> 70 µM (inactive)
same,IC50,[20],> 20 µM (inactive)
same,IC50,[21],> 10 µM (inactive)
same,AC50,[22],2.4 µM (active)
